Test results as given in patent publication US11807644B2 (PMV Pharmaceuticals, Inc., priority 2020, dated 2023).

The compounds below were run against T1, recombinant His-tag Y220C p53 DBD protein (Homo sapiens, UniProt P04637, Y220C) (assay: In vitro DNA binding activity assay (TR-FRET): binding of His-tag Y220C p53 DBD to biotin-labeled consensus DNA). Conditions: SC150 = concentration to increase DNA binding by […], His-tag Y220C p53 DBD, biotin-labeled consensus DNA.
T1 construct: recombinant His-tag Y220C p53 DBD protein (amino acids #˜94-312)
Assay type: biochemical

Compound | Y220C SC150 (μM)
CO[C@@H]1CCN(c2nc(C(=O)NCc3nc(-c4cc5c(N[C@@H]6CCN(C)C[C@@H]6F)cccc5n4CC(F)(F)F)no3)cs2)C1 [Compound 522B, N-{[3-(4-{[(3S,4R)-3-fluoro-1-methylpiperidin-4-yl]amino}-1-(2,2,2-trifluoroethyl)-1H-indol-2-yl)-1,2,4-oxadiazol-5-yl]methyl}-2-[(3R)-3-methoxypyrrolidin-1-yl]-1,3-thiazole-4-carboxamide] | * (* = 0 μM ≤ SC150 < 0.1 μM)
CN1CC[C@@H](Nc2cccc3c2cc(-c2noc(CNC(=O)c4cccnc4)n2)n3CC(F)(F)F)[C@@H](F)C1 [Compound 202B, N-{[3-(4-{[(3S,4R)-3-fluoro-1-methylpiperidin-4-yl]amino}-1-(2,2,2-trifluoroethyl)-1H-indol-2-yl)-1,2,4-oxadiazol-5-yl]methyl}pyridine-3-carboxamide] | * (* = 0 μM ≤ SC150 < 0.1 μM)
COc1ccc(NCc2nc(-c3cc4c(N[C@@H]5CCN(C)C[C@@H]5F)cccc4n3CC(F)(F)F)no2)nc1 [Compound 378B, N-[(3S,4R)-3-fluoro-1-methylpiperidin-4-yl]-2-(5-{[(5-methoxypyridin-2-yl)amino]methyl}-1,2,4-oxadiazol-3-yl)-1-(2,2,2-trifluoroethyl)-1H-indol-4-amine] | * (* = 0 μM ≤ SC150 < 0.1 μM)
CN1CCC(Nc2cccc3c2cc(-c2nnc(CNC(=O)[C@@H]4C[C@@H]4C(=O)O)s2)n3CC(F)(F)F)CC1 (racemic) [Compound 81B, (+/−)-(1R,2S)-2-{[(5-{4-[(1-methylpiperidin-4-yl)amino]-1-(2,2,2-trifluoroethyl)-1H-indol-2-yl}-1,3,4-thiadiazol-2-yl)methyl]carbamoyl}cyclopropane-1-carboxylic acid] | ** (** = 0.1 μM ≤ SC150 < 0.5 μM)
COc1ccc(NCc2nc(-c3cc4c(N[C@@H]5CCN(C)C[C@@H]5F)cccc4n3CC(F)(F)F)no2)cc1 [Compound 380B, N-[(3S,4R)-3-fluoro-1-methylpiperidin-4-yl]-2-(5-{[(4-methoxyphenyl)amino]methyl}-1,2,4-oxadiazol-3-yl)-1-(2,2,2-trifluoroethyl)-1H-indol-4-amine] | * (* = 0 μM ≤ SC150 < 0.1 μM)
COCC(C)(C)n1ccc(C(=O)NCc2nc(-c3cc4c(N[C@@H]5CN(C)CC[C@@H]5F)cccc4n3CC(F)(F)F)no2)c1 [Compound 417B, N-{[3-(4-{[(3R,4S)-4-fluoro-1-methylpiperidin-3-yl]amino}-1-(2,2,2-trifluoroethyl)-1H-indol-2-yl)-1,2,4-oxadiazol-5-yl]methyl}-1-(1-methoxy-2-methylpropan-2-yl)-1H-pyrrole-3-carboxamide] | * (* = 0 μM ≤ SC150 < 0.1 μM)
CN1CC[C@@H](Nc2cccc3c2cc(-c2noc(CNC(=O)c4cn(-c5ccccc5)cn4)n2)n3CC(F)(F)F)[C@@H](F)C1 [Compound 197B, N-{[3-(4-{[(3S,4R)-3-fluoro-1-methylpiperidin-4-yl]amino}-1-(2,2,2-trifluoroethyl)-1H-indol-2-yl)-1,2,4-oxadiazol-5-yl]methyl}-1-phenyl-1H-imidazole-4-carboxamide] | * (* = 0 μM ≤ SC150 < 0.1 μM)
CN1CC[C@@H](Nc2cccc3c2cc(-c2noc(CNC(=O)c4ccc(C(C)(C)C#N)s4)n2)n3CC(F)(F)F)[C@@H](F)C1 [Compound 442B, 5-(1-cyano-1-methylethyl)-N-{[3-(4-{[(3S,4R)-3-fluoro-1-methylpiperidin-4-yl]amino}-1-(2,2,2-trifluoroethyl)-1H-indol-2-yl)-1,2,4-oxadiazol-5-yl]methyl}thiophene-2-carboxamide] | * (* = 0 μM ≤ SC150 < 0.1 μM)
CNc1cc(-c2cc3c(NC4CCN(C)CC4)cccc3n2CC(F)(F)F)n[nH]1 [Compound 23B, 2-[5-(methylamino)-1H-pyrazol-3-yl]-N-(1-methylpiperidin-4-yl)-1-(2,2,2-trifluoroethyl)-1H-indol-4-amine] | **** (**** = 1 μM ≤ SC150 < 10 μM)
CN1CC[C@@H](Nc2cccc3c2cc(-c2noc(CNC(=O)c4ccnc(C(C)(C)O)c4)n2)n3CC(F)(F)F)[C@@H](F)C1 [Compound 550B, N-{[3-(4-{[(3S,4R)-3-fluoro-1-methylpiperidin-4-yl]amino}-1-(2,2,2-trifluoroethyl)-1H-indol-2-yl)-1,2,4-oxadiazol-5-yl]methyl}-2-(2-hydroxypropan-2-yl)pyridine-4-carboxamide] | * (* = 0 μM ≤ SC150 < 0.1 μM)
CN1CC[C@@H](Nc2cccc3c2cc(-c2noc(CNC(=O)[C@H]4C[C@H]4c4ccccc4)n2)n3CC(F)(F)F)[C@@H](F)C1 [Compound 206B, (1S,2R)-N-{[3-(4-{[(3S,4R)-3-fluoro-1-methylpiperidin-4-yl]amino}-1-(2,2,2-trifluoroethyl)-1H-indol-2-yl)-1,2,4-oxadiazol-5-yl]methyl}-2-phenylcyclopropane-1-carboxamide] | * (* = 0 μM ≤ SC150 < 0.1 μM)
COCC1(c2ccc(C(=O)NCc3nc(-c4cc5c(N[C@@H]6CCN(C)C[C@@H]6F)cccc5n4CC(F)(F)F)no3)s2)CC1 [Compound 483B, N-{[3-(4-{[(3S,4R)-3-fluoro-1-methylpiperidin-4-yl]amino}-1-(2,2,2-trifluoroethyl)-1H-indol-2-yl)-1,2,4-oxadiazol-5-yl]methyl}-5-[1-(methoxymethyl)cyclopropyl]thiophene-2-carboxamide] | * (* = 0 μM ≤ SC150 < 0.1 μM)
CC(C)(C)n1ccc(C(=O)NCc2nc(-c3cc4c(N[C@@H]5CNCC[C@@H]5F)cccc4n3CC(F)(F)F)no2)c1 (racemic) [Compound 382B, rac-1-tert-butyl-N-{[3-(4-{[(3R,4S)-4-fluoropiperidin-3-yl]amino}-1-(2,2,2-trifluoroethyl)-1H-indol-2-yl)-1,2,4-oxadiazol-5-yl]methyl}-1H-pyrrole-3-carboxamide] | * (* = 0 μM ≤ SC150 < 0.1 μM)
CN1CC[C@@H](Nc2cccc3c2cc(-c2noc(CNC(=O)c4cn(C)nn4)n2)n3CC(F)(F)F)[C@@H](F)C1 [Compound 236B, N-{[3-(4-{[(3S,4R)-3-fluoro-1-methylpiperidin-4-yl]amino}-1-(2,2,2-trifluoroethyl)-1H-indol-2-yl)-1,2,4-oxadiazol-5-yl]methyl}-1-methyl-1H-1,2,3-triazole-4-carboxamide] | * (* = 0 μM ≤ SC150 < 0.1 μM)
CN1CCC(Nc2cccc3c2cc(-c2nnc(CNC(=O)c4ccccc4F)s2)n3CC(F)(F)F)CC1 [Compound 50B, 2-fluoro-N-[(5-{4-[(1-methylpiperidin-4-yl)amino]-1-(2,2,2-trifluoroethyl)-1H-indol-2-yl}-1,3,4-thiadiazol-2-yl)methyl]benzamide] | ** (** = 0.1 μM ≤ SC150 < 0.5 μM)
CN1CC[C@@H](Nc2cccc3c2cc(-c2nc(CNC(=O)c4cncs4)no2)n3CC(F)(F)F)[C@@H](F)C1 (racemic) [Compound 279B, (+/−)-N-{[5-(4-{[(3R,4S)-3-fluoro-1-methylpiperidin-4-yl]amino}-1-(2,2,2-trifluoroethyl)-1H-indol-2-yl)-1,2,4-oxadiazol-3-yl]methyl}-1,3-thiazole-5-carboxamide] | * (* = 0 μM ≤ SC150 < 0.1 μM)
CN1CC[C@@H](Nc2cccc3c2cc(-c2cc(CNc4ccc(S(C)(=O)=O)cc4)cs2)n3CC(F)(F)F)[C@@H](F)C1 [Compound 284B, N-[(3S,4R)-3-fluoro-1-methylpiperidin-4-yl]-2-(4-{[(4-methanesulfonylphenyl)amino]methyl}thiophen-2-yl)-1-(2,2,2-trifluoroethyl)-1H-indol-4-amine] | ** (** = 0.1 μM ≤ SC150 < 0.5 μM)
COCC(C)n1ccc(C(=O)NCc2nc(-c3cc4c(N[C@@H]5CCN(C(C)(C)C)C[C@@H]5F)cccc4n3CC(F)(F)F)no2)c1 (mixture of isomers) [Compound 357B, rac-N-{[3-(4-{[(3R,4S)-1-tert-butyl-3-fluoropiperidin-4-yl]amino}-1-(2,2,2-trifluoroethyl)-1H-indol-2-yl)-1,2,4-oxadiazol-5-yl]methyl}-1-(1-methoxypropan-2-yl)-1H-pyrrole-3-carboxamide] | * (* = 0 μM ≤ SC150 < 0.1 μM)
COc1cc(S(C)(=O)=O)ccc1NCc1nc(-c2cc3c(N[C@@H]4CCN(C)C[C@@H]4F)cccc3n2CC(F)(F)F)no1 (racemic) [Compound 183B, (+/−)-N-[(3R,4S)-3-fluoro-1-methylpiperidin-4-yl]-2-(5-{[(4-methanesulfonyl-2-methoxyphenyl)amino]methyl}-1,2,4-oxadiazol-3-yl)-1-(2,2,2-trifluoroethyl)-1H-indol-4-amine] | * (* = 0 μM ≤ SC150 < 0.1 μM)
COc1cc(S(C)(=O)=O)ccc1NCc1nnc(-c2cc3c(N[C@H]4CCN(C)C[C@H]4F)cccc3n2CC(F)(F)F)s1 [Compound 61B, N-[(3R,4S)-3-fluoro-1-methylpiperidin-4-yl]-2-(5-{[(4-methanesulfonyl-2-methoxyphenyl)amino]methyl}-1,3,4-thiadiazol-2-yl)-1-(2,2,2-trifluoroethyl)-1H-indol-4-amine] | * (* = 0 μM ≤ SC150 < 0.1 μM)
CN1CCC(n2cc(C(=O)NCc3nc(-c4cc5c(N[C@@H]6CCN(C)C[C@@H]6F)cccc5n4CC(F)(F)F)no3)cn2)CC1 [Compound 350B, N-{[3-(4-{1[(3S,4R)-3-fluoro-1-methylpiperidin-4-yl]amino}-1-(2,2,2-trifluoroethyl)-1H-indol-2-yl)-1,2,4-oxadiazol-5-yl]methyl}-1-(1-methylpiperidin-4-yl)-1H-pyrazole-4-carboxamide] | * (* = 0 μM ≤ SC150 < 0.1 μM)

Same assay, conditions: concentration to increase DNA binding by […], incubated at either 27° C. or 29° C. for 60 min

Compound | SC150 (μM)
CS(=O)(=O)c1ccc(NCc2ccc(-c3cc4c(NC5CCN(C6CCOCC6)CC5)cccc4n3CC(F)(F)F)cc2)cc1 [Compound 30A, 2-(4-{[(4-methanesulfonylphenyl)amino]methyl}phenyl)-N-[1-(oxan-4-yl)piperidin-4-yl]-1-(2,2,2-trifluoroethyl)-1H-indol-4-amine] | + (+ = 0 μM ≤ SC150 < 2 μM)
